The data set is described as follows: Zeta potential profile at varying pH of amphoteric liposomes (zero point = isoelectric point). The data set is classed as physicochemical. To be noted: liposomes of 2 mg lipid and 10 mg DMPC; buffer 10 mM Kac, 10 mM HEPES, 150 mM NaCl; extruded 200 nm; value is a pH. Here is the method:
FIG. 1 is a graph showing a profile of the zeta potential in mV at varying pH values for the amphoteric liposomes prepared according to Example 4.
2 mg of the corresponding lipid and 10 mg of DMPC are dissolved in 4 ml of chloroform/methanol (1:1 v/v) and dried completely in a rotary evaporator. The lipid film is hydrated with 4.3 ml of buffer (10 mM Kac, 10 mM HEPES, 150 mM NaCl, pH 7.5) at a lipid concentration of 5 mM using ultrasonic treatment for 5 minutes. Finally, the suspension is frozen and, following thawing, subjected to multiple extrusions (Avestine LiposoFast, polycarbonate filter, pore width 200 nm). The profile of the zeta potential in mV at varying pH values is illustrated in FIG. 1. The zero point indicates the pH value at which the liposome is discharged. This pH corresponds to the isoelectric point of the lipid and is 4.5 for #8, 5.2 for #34, 5.7 for #25.

For the compound `CCCCCCCC/C=C\CCCCCCCC(=O)OCC(CN(CCC(=O)O)CCC(=O)O)OC(=O)CCCCCCC/C=C\CCCCCCCC` (centres unmarked) [#8, N,N-bis(propanoic acid-3-yl)-N-(2,3-dioleoyloxypropyl)amine], the “isoelectric point of the lipid (pH value at which the liposome is discharged, zero point of zeta potential)” value was found to be 4.5.

As for `CCCC(=O)OC(COC(=O)CC)OP(=O)(O)OCCNCCC(=O)NC(Cc1c[nH]cn1)C(=O)O` (centres unmarked) [#25, phosphatidyl glycerylcarnosine], the “isoelectric point of the lipid (pH value at which the liposome is discharged, zero point of zeta potential)” value turned out to be 5.7.

For the origin of these results see US8580297B2, “Components for producing amphoteric liposomes” (Marina Biotech, Inc., priority 2002, dated 2013).
